The source made the active and inactive calls. The rule behind the calls is not given here.
How the values were obtained:
[1] = target: Acetylcholinesterase (Electrophorus electricus) (UniProt O42275); experiment: (§1) Inhibition of Electrophorus electricus acetylcholinesterase by rapid colorimetric determination
Acetylcholinesterase = Acetylcholinesterase (Electrophorus electricus, UniProt O42275); experiment: as §1
Acetylcholinesterase, sequence (O42275 whole entry): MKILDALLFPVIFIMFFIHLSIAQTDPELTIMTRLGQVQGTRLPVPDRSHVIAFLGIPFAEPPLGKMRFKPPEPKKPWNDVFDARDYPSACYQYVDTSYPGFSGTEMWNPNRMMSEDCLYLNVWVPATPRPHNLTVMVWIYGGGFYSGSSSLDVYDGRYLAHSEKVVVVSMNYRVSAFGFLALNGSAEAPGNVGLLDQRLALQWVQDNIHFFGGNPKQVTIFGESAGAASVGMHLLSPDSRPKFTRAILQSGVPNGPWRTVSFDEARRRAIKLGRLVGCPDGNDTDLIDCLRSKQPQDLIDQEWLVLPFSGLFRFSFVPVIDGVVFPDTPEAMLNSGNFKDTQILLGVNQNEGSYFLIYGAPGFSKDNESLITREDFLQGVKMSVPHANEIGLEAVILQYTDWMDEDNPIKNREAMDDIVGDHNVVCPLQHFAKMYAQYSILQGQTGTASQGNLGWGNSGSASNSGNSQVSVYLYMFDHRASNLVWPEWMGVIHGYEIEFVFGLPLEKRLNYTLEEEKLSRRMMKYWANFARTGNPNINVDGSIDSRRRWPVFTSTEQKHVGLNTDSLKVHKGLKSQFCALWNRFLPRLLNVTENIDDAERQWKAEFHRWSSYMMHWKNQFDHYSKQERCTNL

Acetylcholinesterase (Electrophorus electricus), sequence (O42275 24-633 limits assumed): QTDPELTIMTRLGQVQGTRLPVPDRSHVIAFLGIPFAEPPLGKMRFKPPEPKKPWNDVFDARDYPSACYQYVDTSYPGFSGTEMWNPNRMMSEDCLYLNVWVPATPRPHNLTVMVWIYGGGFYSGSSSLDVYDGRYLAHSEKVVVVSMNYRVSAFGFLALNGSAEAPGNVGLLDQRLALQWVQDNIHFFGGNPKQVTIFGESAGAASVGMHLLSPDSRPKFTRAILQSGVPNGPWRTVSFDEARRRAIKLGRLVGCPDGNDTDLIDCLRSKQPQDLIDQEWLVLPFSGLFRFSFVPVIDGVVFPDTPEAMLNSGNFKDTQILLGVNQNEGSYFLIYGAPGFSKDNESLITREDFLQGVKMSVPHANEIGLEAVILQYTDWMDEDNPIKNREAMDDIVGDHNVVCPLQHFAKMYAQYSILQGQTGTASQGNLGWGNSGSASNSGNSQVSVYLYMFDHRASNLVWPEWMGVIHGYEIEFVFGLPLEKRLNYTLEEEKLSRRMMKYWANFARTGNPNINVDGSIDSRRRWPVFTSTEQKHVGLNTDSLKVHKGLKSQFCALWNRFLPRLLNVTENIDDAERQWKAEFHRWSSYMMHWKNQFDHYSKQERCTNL

CC(=O)N1CCC[C@H]2[C@@H](C[C@H]3CC[C@]4(O)[C@@H]5C[C@@H]6[C@@H](C[C@@H](C)C[C@@H]6N(C)C5)C[C@H]4N3)C[C@H](C)C[C@H]21
Activity [1]: inactive

CC(=O)N1CCC[C@@H]2[C@@H](C[C@H]3CC[C@@H]4[C@H]5C[C@@H]6[C@@H](C[C@@H](C)C[C@@H]6N(C)C5)C[C@H]4N3)C[C@H](C)C[C@@H]21
Activity [1]: inactive

C[C@@H]1C[C@@H]2C[C@H]3N[C@H](C[C@H]4C[C@@H](C)C[C@@H]5[C@@H]4CCCN5C=O)CC[C@@H]3[C@H]3C[C@H]2[C@@H](C1)N(C)C3 [SERRATEZOMINE D]
IC50 (Acetylcholinesterase): 600 µM

CC(=O)N1CCC[C@H]2[C@@H](C[C@@H]3CC[C@@H]4[C@@H]5C[C@@H]6[C@@H](C[C@@H](C)C[C@@H]6N(C)C5)C[C@H]4N3)C[C@H](C)C[C@H]21
Activity [1]: inactive

Source: ChEMBL document CHEMBL1136944, “Serratezomines D and E, new Lycopodium alkaloids from Lycopodium serratum var. serratum” (Bioorg Med Chem Lett, 2009)
